Several values for one entry are separate records, joined by “and”; a condition that tells them apart may be missing. Identical values can stand only once.
What was measured:
[1] = tested on: wild-type and NMNAT1-Tg female mice; test: Oocyte yield following doxorubicin in wild-type or NMNAT1-Tg mice; format: in vivo; conditions: 10 mg/kg i.p., two months later, PMSG, per mouse
Description: As in Example 2, 7 week-old female wild-type (“WT”) control or their littermates overexpressing NMNAT1 (“NMNAT1-Tg”) were treated with doxorubicin (10 mg/kg, i.p. injection). […] Two months later, animals were super-ovulated with PMSG, euthanased, and ovaries punctured to release MI oocytes, which were counted (FIG. 18 and Table 9).

[2] = tested on: oocytes; test: Meiotic progression (GVBD, PBE) of harvested oocytes, doxorubicin with or without NMN; format: in vivo, mice; conditions: doxorubicin and/or NMN
Excerpt: Once harvested from ovaries, oocytes were stored in IBMX media to prevent progression into meiosis.

[3] = tested on: C57BL6 females; test: Reversal design: primordial follicle counts in ovarian histology sections; format: in vivo, mice; conditions: doxorubicin 10 mg/kg i.p., NMN in drinking water started four weeks later for 4 weeks; per mouse
Excerpt: Ovaries were dissected from freshly euthanased animals, and preserved in 10% neutral buffered formalin for 24 hr, followed by 70% ethanol, until embedding in paraffin blocks. Blocks were sectioned on a microtome and subjected to haematoxylin and eosin (H&E) staining. Primordial follicles were manually counted by a blinded investigator.
Next, we decided to investigate whether NMN treatment delivered some time following chemotherapy treatment could actively reverse chemotherapy induced infertility. […] Four weeks later, they received NMN in their drinking water, for another 4 weeks, prior to being euthanased for either oocyte studies or ovarian histological analysis. The rationale of this experimental design is to investigate whether NMN has the ability to induce regeneration of the ovary. According to the standard dogma of reproductive biology, mammals are born with a set number of follicles which are slowly released as oocytes over the course of a lifetime, with the ovaries incapable of regenerating new follicles.

[4] = tested on: C57BL6 female mice; test: Cumulus oocyte complex yield after PMSG superovulation, doxorubicin with or without NMN; format: in vivo; conditions: per mouse, single dose doxorubicin 10 mg/kg i.p. and/or NMN 2 g/L drinking water, 2 months post doxorubicin
Description: To assess oocyte yield, and mice were hormonally stimulated to superovulated by intraperitoneal injection with 7.5 IU/mL of Pregnant Mare's Serum Gonadotropin (PMSG) (Folligon; Intervet, Boxmeer, Holland) to stimulate follicular growth. After 44-46 hours, ovaries were collected in HEPES-buffered minimum essential medium (aMEM; […] Sigma Aldrich, St. Louis, Mo.) and 100 μM IBMX (Sigma Aldrich). […] NMN was delivered through addition to drinking water at 2 g/L, for a final dose of approximately 165 mg/kg. Administration of NMN began one day prior to doxorubicin administration. […] Ovaries were then punctured to release MI oocytes. In a separate cohort of animals, the same experiment was repeated using animals treated with the platinum based chemotherapy drug cisplatin. In FIG. 6 and Table 1, numbers of cumulus oocyte complexes are listed.

[5] = tested on: C57BL6 female mice; test: Mating trial after doxorubicin with or without NMN co-treatment; format: in vivo; conditions: for Number of mating rounds required to achieve pregnancy: the values are: cumulative % of females pregnant by round
Description: Following oocyte counting and analysis of oocyte meiotic progression, as well as a separate cohort of animals for histological ovarian analysis, a separate cohort of animals were treated as indicated, and mated with stud males of proven track record, to assess the ability of animals to deliver live births following chemotherapy treatment in the presence of absence of NMN co-treatment.

[6] = molecular target: NAMPT (Homo sapiens, UniProt P43490); conditions: in vitro; cited from earlier work
NAMPT, sequence (P43490 whole entry, species assumed): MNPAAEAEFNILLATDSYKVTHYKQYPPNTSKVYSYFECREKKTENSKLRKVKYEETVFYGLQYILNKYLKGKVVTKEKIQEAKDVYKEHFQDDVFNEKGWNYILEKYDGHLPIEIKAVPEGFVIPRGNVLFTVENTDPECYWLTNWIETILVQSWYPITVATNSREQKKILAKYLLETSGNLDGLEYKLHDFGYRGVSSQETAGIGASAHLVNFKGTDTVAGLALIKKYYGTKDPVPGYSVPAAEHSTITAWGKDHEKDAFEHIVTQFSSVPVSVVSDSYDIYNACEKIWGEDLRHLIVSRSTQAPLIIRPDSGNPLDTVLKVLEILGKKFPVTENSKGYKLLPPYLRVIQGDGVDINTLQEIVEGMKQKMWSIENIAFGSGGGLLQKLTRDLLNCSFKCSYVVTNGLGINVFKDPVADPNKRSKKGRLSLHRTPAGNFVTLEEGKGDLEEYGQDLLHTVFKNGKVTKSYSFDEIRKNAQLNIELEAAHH

[7] = molecular target: T1, CD38 (Homo sapiens, UniProt P28907); conditions: in vitro; cited from earlier work
T1 sequence (P28907 1-300): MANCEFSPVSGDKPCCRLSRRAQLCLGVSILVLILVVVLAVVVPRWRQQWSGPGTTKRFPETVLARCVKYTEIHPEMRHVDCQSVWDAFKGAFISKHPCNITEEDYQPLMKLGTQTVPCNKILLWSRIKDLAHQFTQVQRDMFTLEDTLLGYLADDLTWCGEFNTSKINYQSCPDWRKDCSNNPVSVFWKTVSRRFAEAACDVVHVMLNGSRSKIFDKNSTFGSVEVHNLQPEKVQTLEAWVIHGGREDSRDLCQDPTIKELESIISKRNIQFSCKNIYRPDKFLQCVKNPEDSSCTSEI

[8] = tested on: oocytes; test: Meiotic progression (GVBD, PBE) of harvested oocytes, cisplatin with or without NMN; format: in vivo, mice; conditions: cisplatin and/or NMN
Description: Once harvested from ovaries, oocytes were stored in IBMX media to prevent progression into meiosis. Once released from IBMX, meiotic progression was assessed by the proportions of oocytes achieving germinal vesicle breakdown (GVBD) for meiosis I, and polar body extrusion (PBE) for meiosis II, with results shown in FIGS. 7 and 8 and Tables 2 and 3.
Again, as in Example 2 above, the oocytes which were harvested from these studies were allowed to progress down meiosis, in order to assess meiotic progression rates (FIGS. 16 and 17 and Table 7 and 8).

[9] = tested on: C57BL6 female mice; test: Cumulus oocyte complex yield after PMSG, cisplatin with or without NMN; format: in vivo; conditions: per mouse, single dose cisplatin 5 mg/kg i.p. and/or NMN 2 g/L drinking water, two months later
Description: To assess oocyte yield, and mice were hormonally stimulated to superovulated by intraperitoneal injection with 7.5 IU/mL of Pregnant Mare's Serum Gonadotropin (PMSG) (Folligon; Intervet, Boxmeer, Holland) to stimulate follicular growth. After 44-46 hours, ovaries were collected in HEPES-buffered minimum essential medium (aMEM; Gibco Life Technologies, Grand Island, N.Y.) supplemented with 50 µM of 3-isobuty-1-methylxanthine (IBMX) (Sigma aldrich, NSW, AU) (M2 medium) to maintain meitotic arrest at germinal vesicle stage. Cumulus oocyte complexes (COCs) were isolated from preovulatory follicles using a 27-gauge needle and collected using flame-pulled borosilicate Pasteur pipettes in M2 medium supplemented with 3 mg/ml bovine serum albumin (BSA; Sigma Aldrich, St. Louis, Mo.) and 100 μM IBMX (Sigma Aldrich). Cumulus oocyte complexes (COCs) were mechanically denuded of cumulus cells by pipetting, and the denuded oocytes were transferred to another dish containing a drop of fresh M2-medium plus IBMX on heat block with 37° C. with lid to protect oocytes from light. […]

[10] = tested on: C57BL6 females; test: Reversal design: oocyte yield, cisplatin followed by NMN 4 weeks later; format: in vivo, mice; conditions: cisplatin 5 mg/kg i.p., per mouse
Description: To assess oocyte yield, and mice were hormonally stimulated to superovulated by intraperitoneal injection with 7.5 IU/mL of Pregnant Mare's Serum Gonadotropin (PMSG) (Folligon; Intervet, Boxmeer, Holland) to stimulate follicular growth. After 44-46 hours, ovaries were collected in HEPES-buffered minimum essential medium (aMEM; Gibco Life Technologies, Grand Island, N.Y.) supplemented with 50 µM of 3-isobuty-1-methylxanthine (IBMX) (Sigma aldrich, NSW, AU) (M2 medium) to maintain meitotic arrest at germinal vesicle stage. Cumulus oocyte complexes (COCs) were isolated from preovulatory follicles using a 27-gauge needle and collected using flame-pulled borosilicate Pasteur pipettes in M2 medium supplemented with 3 mg/ml bovine serum albumin (BSA; Sigma Aldrich, St. Louis, Mo.) and 100 μM IBMX (Sigma Aldrich). Cumulus oocyte complexes (COCs) were mechanically denuded of cumulus cells by pipetting, and the denuded oocytes were transferred to another dish containing a drop of fresh M2-medium plus IBMX on heat block with 37° C. with lid to protect oocytes from light.
Next, we decided to investigate whether NMN treatment delivered some time following chemotherapy treatment could actively reverse chemotherapy induced infertility. […]

[11] = molecular target: NADH:quinone oxidoreductase (NQ01) (Homo sapiens, UniProt P15559); conditions: cited from earlier work
NADH:quinone oxidoreductase (NQ01), sequence (P15559 whole entry): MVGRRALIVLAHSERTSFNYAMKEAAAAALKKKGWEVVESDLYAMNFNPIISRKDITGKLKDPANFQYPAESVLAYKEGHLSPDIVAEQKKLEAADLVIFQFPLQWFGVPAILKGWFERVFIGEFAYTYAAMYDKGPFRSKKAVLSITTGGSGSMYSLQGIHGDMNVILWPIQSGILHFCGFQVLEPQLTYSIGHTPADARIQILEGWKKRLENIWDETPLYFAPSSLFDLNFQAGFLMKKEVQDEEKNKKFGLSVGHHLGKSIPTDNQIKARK

Q: Which results are given for `COc1cccc2c1C(=O)c1c(O)c3c(c(O)c1C2=O)C[C@@](O)(C(=O)CO)C[C@@H]3O[C@H]1C[C@H](N)[C@H](O)[C@H](C)O1` [Dox, doxorubicin]?
A: Oocyte yield following doxorubicin treatment ([1]; NMNAT1-Tg mice): 13 (2×) and 12 and 11 and 15 and 10 (2×) and 18; Oocyte yield following doxorubicin treatment ([1]; wild-type mice): 1 (2×) and 4 (2×) and 2 and 7 and 9 (2×) and 3; Proportion of harvested oocytes achieving germinal vesicle breakdown ([2]; 1 h after release from IBMX): 19 % of total; Proportion of harvested oocytes achieving germinal vesicle breakdown ([2]; 2 h after release from IBMX): 92 % of total; Proportions of oocytes achieving polar body extrusion ([2]; 14 hr following GVBD): 21; Proportions of oocytes achieving polar body extrusion ([2]; 16 hr following GVBD): 52; Proportions of oocytes achieving polar body extrusion ([2]; 20 hr following GVBD): 81; Primordial follicle numbers in ovarian histology sections [3]: 34 and 50 and 49 and 41; Numbers of cumulus oocyte complexes released from mice [4]: 1 and 8 and 9 and 3 and 6 and 7 and 5; Number of mating rounds required to achieve pregnancy ([5]; Round 0): 0%; Number of mating rounds required to achieve pregnancy ([5]; Round 1): 60%; Number of mating rounds required to achieve pregnancy ([5]; Round 2): 90%; Number of mating rounds required to achieve pregnancy ([5]; Round 3): 90%; Number of live pups born per litter ([5]; per litter, female C57BL6 mice treated with doxorubicin and/or NMN, mated): strong reduction

Q: For `OC(CNc1ccccc1)Cn1c2ccc(Br)cc2c2cc(Br)ccc21` (stereo not shown) [P7C3], which “Effect on NAMPT activity” value [6] is on record?
A: The value was “enhances activity of NAMPT in vitro”.

Q: With `O=c1cc(-c2ccc(O)cc2)oc2cc(O)cc(O)c12` [apigenin, 5,7-dihydroxy-2-(4-hydroxyphenyl)-4H-1-benzopyran-4-one] as the compound, how does the “Inhibition of CD38 activity” value [7] read?
A: The value was “inhibitors of CD38 activity in vitro”.

Q: For `N.N.[Cl][Pt][Cl]` [cisplatin], which “Proportion of harvested oocytes achieving germinal vesicle breakdown” value ([8]; 1 h after release from IBMX) is on record?
A: The value was 43 % of total.

Q: What about the “Proportion of harvested oocytes achieving germinal vesicle breakdown” value ([8]; 2 h after release from IBMX) of the same compound?
A: Its value is 100 % of total.

Q: What about the “Proportion of harvested oocytes achieving polar body extrusion” value ([8]; 14 hr following completion of GVBD) of the same compound?
A: Its value is 40 % of total.

Q: What about the “Proportion of harvested oocytes achieving polar body extrusion” value ([8]; 16 hr following completion of GVBD) of the same compound?
A: Its value is 70 % of total.

Q: What about the “Proportion of harvested oocytes achieving polar body extrusion” value ([8]; 20 hr following completion of GVBD) of the same compound?
A: Its value is 85 % of total.

Q: And the “Numbers of cumulus oocyte complexes released from mice” value [9]?
A: The value was “reduces oocyte yield and 10 and 5 and 6 and 0 and 4 and 9”.

Q: What about the Oocyte yield [10] of the same compound?
A: The Oocyte yield was 6 and 5 (2×) and 2 and 4.

Q: With `O=c1c(O)c(-c2ccc(O)c(O)c2)oc2cc(O)cc(O)c12` [quercetin, 2-(3,4-dihydroxyphenyl)-3,5,7-trihydroxy-4H-chromen-4-one] as the compound, how does the “Inhibition of CD38 activity” value [7] read?
A: Its value is “inhibitors of CD38 activity in vitro”.

Q: For `CC1(C)CCC2=C(O1)c1ccccc1C(=O)C2=O` [β-lapachone, 3,4-dihydro-2,2-dimethyl-2H-napthol[1,2-b]pyran-5,6-dione], which “Effect on NQ01” value [11] is on record?
A: The value was “activates the enzyme NADH:quinone oxidoreductase (NQ01)”.

From patent US20200368198A1, “METHODS FOR INCREASING FERTILITY” (NEWSOUTH INNOVATIONS PTY LIMITED, priority 2017, published 2020)
